Data reported in paper PMC9151520 (Archives of Toxicology, 2022).
Counter-ions that a name gives are not always drawn. Like-named read-outs stand apart in the source and are kept apart here.

Columns and labels:
[1] = tested on: p53 signaling (p53RE-bla HCT-116 cells); experiment: cells; assay type: cell-based
[2] = tested on: p53 signaling (p53RE-bla HCT-116 cells)
[3] = tested on: p53 signaling (p53RE-bla HCT-116 cells); remark: listed apart in the source
[4] = tested on: p53 signaling (p53RE-bla HCT-116 cells); experiment: cells; conditions: Homo sapiens
[5] = Homo sapiens, HCT-116, read-out: EC50, p53 activation, cherry pick confirmation
[6] = Homo sapiens, HCT-116, read-out: Efficacy, p53 activation, cherry pick confirmation
[7] = Homo sapiens, HCT-116, read-out: p53 activation EC50, cherry pick confirmation
[8] = Homo sapiens, HCT-116, read-out: p53 activation efficacy, cherry pick confirmation
[9] = HCT-116, read-out: p53 activation EC50, primary screening
[10] = HCT-116, read-out: p53 activation efficacy, primary screening
[11] = HCT-116, read-out: p53 activation EC50, cherry pick confirmation
[12] = HCT-116, read-out: p53 activation efficacy, cherry pick confirmation
[13] = Homo sapiens, HCT-116, read-out: p53 activation EC50, primary screening
[14] = Homo sapiens, HCT-116, read-out: p53 activation efficacy, primary screening

Row | Compound | p53 activation EC50, primary screening [1] | p53 activation efficacy, primary screening [1] | p53 activation EC50, cherry pick confirmation [2] | p53 activation efficacy, cherry pick confirmation [2] | p53 activation EC50, cherry pick confirmation [3] | p53 activation EC50, primary screening [3] | p53 activation efficacy, cherry pick confirmation [3] | p53 activation efficacy, primary screening [3] | Viability EC50, cherry pick confirmation (p53RE-bla HCT-116 cells) | Viability EC50, primary screening (p53RE-bla HCT-116 cells) | Viability efficacy, cherry pick confirmation (p53RE-bla HCT-116 cells) | Viability efficacy, primary screening (p53RE-bla HCT-116 cells) | EC50 [4, 9] [µM] | Emax [4, 10] [%] | p53 activation EC50, cherry pick confirmation [1] | p53 activation efficacy, cherry pick confirmation [1] | other results
1 | O=c1[nH]c(=O)n([C@H]2C[C@H](O)[C@@H](CO)O2)cc1F [Floxuridine] |  |  |  |  |  |  |  |  |  |  |  |  |  |  |  |  | EC50 [1, 5]: 15.7 µM; EC50 ([1]; Homo sapiens, HCT-116, read-out: EC50, p53 activation, primary screening): 0.643 µM; Emax [1, 6]: 59.4%; EC50, p53 activation, cherry pick confirmation [2]: inactive; Efficacy, p53 activation, cherry pick confirmation [2]: inactive; EC50, p53 activation, cherry pick confirmation [3]: inactive; EC50, p53 activation, primary screening [3]: inactive; Efficacy, p53 activation, cherry pick confirmation [3]: inactive; Efficacy, p53 activation, primary screening [3]: inactive; EC50, viability, cherry pick confirmation (p53RE-bla HCT-116 cells): inactive; EC50, viability, primary screening (p53RE-bla HCT-116 cells): inactive; Efficacy, viability, cherry pick confirmation (p53RE-bla HCT-116 cells): inactive; Efficacy, viability, primary screening (p53RE-bla HCT-116 cells): inactive; EC50 ([4]; HCT-116, read-out: EC50, p53 activation, primary screening): 0.326 µM
2 | O=C1OC(O)C(Cl)=C1Cl (stereo not drawn) [Mucochloric acid] | inactive | inactive | inactive | inactive | inactive | inactive | inactive | inactive | inactive | inactive | inactive | inactive | 49.4 | 51.8 |  |  | EC50 [1, 7]: 15.9 µM; Emax [1, 8]: 180%
3 | c1cc2ccc3cccc4ccc(c1)c2c34 [Pyrene] | inactive | inactive | inactive | inactive | inactive | inactive | inactive | inactive | inactive | inactive | inactive | inactive | 21.7 | 51.6 | inactive | inactive | 
4 | CNC(=O)Oc1cc(C)cc(C(C)C)c1 [Promecarb] | inactive | inactive |  |  | inactive |  | inactive |  | inactive | inactive | inactive | inactive |  |  | inactive | inactive | EC50 [4, 11]: 20 µM; Emax [4, 12]: 40.2%
5 | c1ccc2c(c1)-c1cccc3cccc-2c13 [Fluoranthene] | inactive | inactive | inactive | inactive | inactive | inactive | inactive | inactive | inactive | inactive | inactive | inactive | 24.4 | 33.6 | inactive | inactive | 
6 | c1ccc2c(c1)c1cccc3ccc4cccc2c4c31 [Benzo(e)pyrene] |  |  | inactive | inactive | inactive | inactive | inactive | inactive | inactive | inactive | inactive | inactive | 20.1 | 48.3 | inactive | inactive | EC50 [1, 13]: 36.3 µM; Emax [1, 14]: 104%
7 | COP(=O)(OC)O/C(=C\Cl)c1cc(Cl)c(Cl)cc1Cl [Z-Tetrachlorvinphos] | inactive | inactive |  |  | inactive |  | inactive |  | inactive | inactive | inactive | inactive |  |  | inactive | inactive | EC50 [4, 11]: 31.6 µM; Emax [4, 12]: 115%
8 | CCN(C)C(=O)Oc1cccc([C@H](C)N(C)C)c1 [Rivastigmine tartrate] | inactive | inactive |  |  | inactive |  | inactive |  | inactive | inactive | inactive | inactive |  |  | inactive | inactive | EC50 [4, 11]: 8.41 µM; Emax [4, 12]: 32.8%
9 | Nc1ccn([C@@H]2O[C@H](CO)[C@@H](O)[C@@H]2O)c(=O)n1 [Cytarabine] |  |  |  |  |  |  |  |  |  |  |  |  |  |  |  |  | EC50 [1, 5]: 0.913 µM; Emax [1, 6]: 96.4%; Emax ([1]; Homo sapiens, HCT-116, read-out: Efficacy, p53 activation, primary screening): 83.8%; EC50, p53 activation, cherry pick confirmation [3]: inactive; EC50, p53 activation, primary screening [3]: inactive; Efficacy, p53 activation, cherry pick confirmation [3]: inactive; Efficacy, p53 activation, primary screening [3]: inactive; EC50, viability, cherry pick confirmation (p53RE-bla HCT-116 cells): inactive; EC50, viability, primary screening (p53RE-bla HCT-116 cells): inactive; Efficacy, viability, cherry pick confirmation (p53RE-bla HCT-116 cells): inactive; Efficacy, viability, primary screening (p53RE-bla HCT-116 cells): inactive; EC50 ([4]; HCT-116, read-out: EC50, p53 activation, cherry pick confirmation): 0.903 µM; Emax ([4]; HCT-116, read-out: Efficacy, p53 activation, cherry pick confirmation): 33.4%; Emax ([4]; HCT-116, read-out: Efficacy, p53 activation, primary screening): 31.7%
10 | COC(=O)Nc1nc2ccccc2[nH]1 [Carbendazim] |  |  | inactive | inactive | inactive | inactive | inactive | inactive | inactive | inactive | inactive | inactive |  |  |  |  | EC50 [1, 7]: 11.9 µM; EC50 [1, 13]: 10.3 µM; Emax [1, 8]: 62.2%; Emax [1, 14]: 67%; p53 activation EC50, primary screening [2]: inactive; p53 activation efficacy, primary screening [2]: inactive
11 | Nc1cnn([C@@H]2O[C@H](CO)[C@@H](O)[C@H]2O)c(=O)n1 [6-Azacytidine] |  |  |  |  |  |  |  |  |  |  |  |  |  |  |  |  | Efficacy, p53 activation, cherry pick confirmation [1]: 68.68; Efficacy, p53 activation, primary screening [1]: 56.623; EC50 ([1]; read-out: EC50, p53 activation, cherry pick confirmation): 1.1 µM; EC50 ([1]; read-out: EC50, p53 activation, primary screening): 0.807 µM; EC50, p53 activation, cherry pick confirmation [2]: inactive; EC50, p53 activation, primary screening [2]: inactive; Efficacy, p53 activation, cherry pick confirmation [2]: inactive; Efficacy, p53 activation, primary screening [2]: inactive; EC50, p53 activation, cherry pick confirmation [3]: inactive; EC50, p53 activation, primary screening [3]: inactive; Efficacy, p53 activation, cherry pick confirmation [3]: inactive; Efficacy, p53 activation, primary screening [3]: inactive; EC50, viability, cherry pick confirmation (p53RE-bla HCT-116 cells): inactive; EC50, viability, primary screening (p53RE-bla HCT-116 cells): inactive; Efficacy, viability, cherry pick confirmation (p53RE-bla HCT-116 cells): inactive; Efficacy, viability, primary screening (p53RE-bla HCT-116 cells): inactive
12 | CC[C@@]1(O)C(=O)OCc2c1cc1n(c2=O)Cc2c-1nc1ccccc1c2/C=N/OC(C)(C)C [Gimatecan] |  |  | inactive | inactive | inactive | inactive | inactive | inactive | inactive | inactive | inactive | inactive |  |  |  |  | EC50 [1, 7]: 0.345 µM; EC50 [1, 13]: 0.118 µM; Emax [1, 8]: 257%; Emax [1, 14]: 118%; p53 activation EC50, primary screening [2]: inactive; p53 activation efficacy, primary screening [2]: inactive
13 | Tricyclodecanedimethanol diacrylate |  | 37.7867 | inactive | inactive | inactive | inactive | inactive | inactive | inactive | inactive |  |  |  |  |  | 41.6463 | EC50 ([1]; read-out: p53 activation EC50, cherry pick confirmation): 30.6 µM; EC50 ([1]; read-out: p53 activation EC50, primary screening): 44.5 µM; p53 activation EC50, primary screening [2]: inactive; p53 activation efficacy, primary screening [2]: inactive; EC50 (p53RE-bla HCT-116 cells; read-out: Viability EC50, cherry pick confirmation): 49.4 µM; EC50 (p53RE-bla HCT-116 cells; read-out: Viability EC50, primary screening): 49.5 µM
